Test results reported in patent US4959368A, “Therapeutic agent for neurological diseases” (Mitsui Petrochemical Industries Ltd., priority 1986, dated 1990).

Key:
[1] = system: human neuroblastoma cell line GOTO; test: Activity on neuroblastoma cell line GOTO (cell number, number and length of neurites); format: cell-based
Procedure: The biological activities in vitro of the compounds of formula (I) on cells of the nervous system were tested. The cells tested were human neuroblastoma cell line GOTO [see Sekiguchi, M., Oota, T., Sakakibara, K., Inui, N. & Fujii, G., Japan. J. Exp. Med., 49, 67-83 (1979)], and neuroblastoma cell line NB-1 [see Miyake, S., Shimo, Y., Kitamura, T., Nojyo, Y., Nakamura, T., Imkashuku, S. and Abe, T., The Autonomic Nervous System, 10, 115-120 (1973)], and mouse neuroblastoma cell line neuro-2a (Dainippon Pharmaceutical Co., Ltd.) which have been established as the cells of the nervous system. The above neuve cells were grown in an incubator at 37° C. in the presence of 5% carbon dioxide gas exponentially, and then cultivated for a certain period of time together with the compounds of formula (I).
The effect of the compounds of this invention on neuroblastoma cells was examined by the following method.
A culture medium [composed of 45% of RPMI 1640 medium, 45% modified Eagle's medium (MEM) and 10% of fetal calf serum (FCS) and containing penicillin G sodium (100 units/ml) and streptomycin sulfate (100 microgram/ml)] containing neurobalstoma cell line GOTO in the logarithmic growth period was poured in an amount of 2 ml each into polystyrene dishes (35 mm; made by Corning Co.) so that the cell concentration was 2 to 6×10^4 cells per dish, and the cells were cultured for 1 to 2 days in a carbon dioxide gas incubator containing 5% of carbon dioxide gas in air at 37° C. Then, the culture fluid was removed, and 2 ml of a fresh serum-free culture fluid (consisting of 50% of RPMI medium and 50% of MEM medium and containing penicillin G sodium and streptomycin sulfate in the same amounts as above) was added. At the same time, a presterilized PBS solution (phosphate buffered saline) of each of the test compounds in various concentrations was added to each of the dishes. After culturing for 24 hours, the number of living cells was counted. Furthermore, the culture was photographed, and from the photos, the number and length of neurites per cell were measured. The numer of living cells was counted for 3 to 6 dishes by resistance to staining with erythrosine dye. The number and length of the neurites were measured with regard to 6 photos (more than 200 cells per photo).

[2] = system: mouse neuroblastoma cell line neuro-2a; test: Activity on neuro-2a, cells with outgrown neurites; format: cell-based
Procedure: In order to examine the effects of the test compounds, the following method was also employed.
Mouse neuro 2a cells in the logarithmic growth period in the Dulbecco's modified Eagle's medium (DMEM) containing 10% FCS was seeded in a 48-well plate so that the number of cells was 1,000 cells/well, and cultured for one day in 0.25 ml of the culture fluid in each well. The culture medium was then replaced by a medium containing each of the test compounds and FCS, and the cells were further cultured for 24 hours. Then, a 4% aqueous glutaraldehyde solution in the same amount as the medium (0.25 ml) was added, and the culture fluid was left to stand at room temperature for 2 hours to fix the cells. After washing with water, a 0.05% aqueous solution of methylene blue was added to stain the cells. Under a microscope, the number of cells containing outgrown neurites (cells having at least one neutrite with a length at least two times as large as the long diameter of the cell) was counted visually, and the proportion of these cells in the entire cells was calculated. The well was observed over 5 or more visual fields (at least 2% of the entire surface area of the well) continuous to the left and right from a mark put at the center of the well, and more than 200 cells was counted. One drug compound was used in 6 different concentrations at most, and three runs were conducted for each concentration.

[3] = system: mice; test: Acute toxicity, mouse; format: in vivo; details: 24 hours; for Number of dead animals/number of test animals: Table 7, 1000 mg/kg p.o.; for Presumed LD50: Table 7, p.o., 1440 min
Procedure: The acute toxicity of the compounds of the invention was examined by the following method.
Male ddy-strain 5-week old mice and male Wistar-strain 8 week old rats, five per group, were used as experimental animals. Each of the compounds was dissolved in saline and administered perorally, and the toxicity of the compound was assessed 24 hours after the administration.

[4] = Table 3 Run No. 10, 0.1 mM, control 1.7 ± 0.7
[5] = Table 3 Run No. 6, 0.1 mM, control 4.4 ± 0.9
[6] = Table 3 Run No. 11, 0.1 mM, control 2.5 ± 0.6
[7] = Table 3 Run No. 11, 0.3 mM, control 2.5 ± 0.6

## CCOC(=O)CN1CCN(c2ncc(C(=O)OC)c(NC(C)C)n2)CC1 [Compound 100, Methyl 2-(4-ethoxycarbonylmethylpiperazino)-4-isopropylaminopyrimidine-5-carboxylate]
[1]; Table 1, Run No. 7 by footnote, 10 μg/ml, control 1.77 ± 0.68
  Number of neurites/cell (mean ± S.D.): 2.00 ± 0.79 neurites/cell
[1]; Table 1, Run No. 7 by footnote, 10 μg/ml, control 42.20 ± 17.75, all *P <0.01
  Length of neurites (mean ± S.D.): 56.06 ± 26.47 μm/cell

## CCNc1nc(N2CCNCC2)ncc1C(=O)OC [Compound 136]
[1]; Table 1 Run No. 2, 1 μg/ml, control 2.06 ± 0.60
  Number of neurites/cell (mean ± S.D.): 2.14 ± 0.63 neurites/cell
[1]; Table 1 Run No. 2, 1 μg/ml, control 12.30 ± 1.48
  Number of cells (mean ± S.E.): 12.85 ± 2.52 × 10^4 /dish
[1]; Table 1 Run No. 2, 1 μg/ml, control 55.00 ± 37.26
  Length of neurites (mean ± S.D.): 60.24 ± 34.28 μm/cell
[2]; Table 3 Run No. 2, 0.1 mM, control 1.9 ± 0.9
  Cells having neurites with a length at least twice the long diameter of cell/total number of cells: 7.2 ± 1.7%
[2]; Table 3 Run No. 10, 0.01 mM, control 1.7 ± 0.7
  Cells having neurites with a length at least twice the long diameter of cell/total number of cells: 5.8 ± 1.6%
[2]; Table 3 Run No. 10, 0.03 mM, control 1.7 ± 0.7
  Cells having neurites with a length at least twice the long diameter of cell/total number of cells: 16.4 ± 0.9%
[2]; [4]
  Cells having neurites with a length at least twice the long diameter of cell/total number of cells: 12.6 ± 1.4%

## CN1C(=O)Cc2cnc(N3CCN(Cc4ccc5c(c4)OCO5)CC3)nc21 [Compound 438, 5,6-Dihydro-7-methyl-2[4-(3,4-methylenedioxyphenylmethyl)piperazino]-6-oxo(7H)pyrrolo[2,3-d]pyrimidine naphthalene-2-sulfonate]
[3]
  Number of dead animals/number of test animals: 0/5

## CN1Cc2nc(N3CCNCC3)ncc2C1=O [Compound 606]
[2]; [5]
  Cells having neurites with a length at least twice the long diameter of cell/total number of cells: 6.9 ± 1.8%
[2]; Table 3 Run No. 6, 3 mM, control 4.4 ± 0.9
  Cells having neurites with a length at least twice the long diameter of cell/total number of cells: 11.9 ± 2.1%
[3]
  Number of dead animals/number of test animals: 0/5
  Presumed LD50: > 1000 mg/kg p.o.

## CN1Cc2nc(N3CCNCC3)ncc2C1=O [Compound 608]
[3]
  Number of dead animals/number of test animals: 0/5
  Presumed LD50: > 1000 mg/kg p.o.

## CC(C)N1Cc2nc(N3CCNCC3)ncc2C1=O [Compound 628]
[1]; Table 1, Run No. 6 by footnote, 1 μg/ml, control 42.48 ± 19.64, all *P <0.01
  Length of neurites (mean ± S.D.): 55.72 ± 25.08 μm/cell
[1]; Table 1, Run No. 6 by footnote, 10 μg/ml, control 1.79 ± 0.80
  Number of neurites/cell (mean ± S.D.): 2.06 ± 0.81 neurites/cell
[1]; Table 1, Run No. 6 by footnote, 10 μg/ml, control 42.48 ± 19.64, all *P <0.01
  Length of neurites (mean ± S.D.): 53.68 ± 22.36 μm/cell
[1]; Table 1, second control group (Run No. 6 by footnote), 1 μg/ml, control 1.79 ± 0.80
  Number of neurites/cell (mean ± S.D.): 1.90 ± 0.81 neurites/cell

## CC(=O)N1Cc2nc(N3CCNCC3)ncc2C1=O [Compound 650, 6-Acetyl-2-piperazino-5-oxo-5,6-dihydro(7H)pyrrolo[3,4-d]pyrimidine naphthalene-2-sulfonate]
[3]
  Number of dead animals/number of test animals: 0/5

## CCOC(=O)CC1C(=O)N(C)c2nc(N3CCNCC3)ncc21 (centres unmarked) [Compound 674]
[2]; Table 3 Run No. 11, 0.03 mM, control 2.5 ± 0.6
  Cells having neurites with a length at least twice the long diameter of cell/total number of cells: 4.2 ± 0.8%
[2]; [6]
  Cells having neurites with a length at least twice the long diameter of cell/total number of cells: 6.7 ± 1.3%
[2]; [7]
  Cells having neurites with a length at least twice the long diameter of cell/total number of cells: 4.5 ± 1.9%

## CCC(=O)N1Cc2nc(N3CCNCC3)ncc2C1=O [Compound 678]
[2]; [6]
  Cells having neurites with a length at least twice the long diameter of cell/total number of cells: 4.1 ± 2.2%
[2]; Table 3 Run No. 11, 1 mM, control 2.5 ± 0.6
  Cells having neurites with a length at least twice the long diameter of cell/total number of cells: 16.1 ± 1.6%
[2]; Table 3 Run No. 11, 3 mM, control 2.5 ± 0.6
  Cells having neurites with a length at least twice the long diameter of cell/total number of cells: 9.1 ± 2.2%
[3]
  Number of dead animals/number of test animals: 0/5

## Cn1ccc2nc(N3CCNCC3)ncc2c1=O [Compound 707]
[2]; Table 3 Run No. 7, 0.3 mM, control 2.5 ± 0.7
  Cells having neurites with a length at least twice the long diameter of cell/total number of cells: 7.3 ± 1.0%
[2]; Table 3 Run No. 7, 0.5 mM, control 2.5 ± 0.7
  Cells having neurites with a length at least twice the long diameter of cell/total number of cells: 10.5 ± 1.5%
[2]; Table 3 Run No. 7, 1 mM, control 2.5 ± 0.7
  Cells having neurites with a length at least twice the long diameter of cell/total number of cells: 21.4 ± 1.7%
[2]; Table 3 second Run No. 5, 0.01 mM, control 4.5 ± 0.3
  Cells having neurites with a length at least twice the long diameter of cell/total number of cells: 6.1 ± 0.5%
[2]; Table 3 second Run No. 5, 1 mM, control 4.5 ± 0.3
  Cells having neurites with a length at least twice the long diameter of cell/total number of cells: 36.1 ± 3.7%

## Cl.c1nc(N2CCNCC2)nc2c1CCO2 [Compound 902, 5,6-Dihydro-2-piperazinofuro[2,3-d]pyrimidine hydrochloride]
[2]; Table 3 Run No. 6, 0.01 mM, control 4.4 ± 0.9
  Cells having neurites with a length at least twice the long diameter of cell/total number of cells: 6.9 ± 0.8%
[2]; Table 3 Run No. 6, 0.03 mM, control 4.4 ± 0.9
  Cells having neurites with a length at least twice the long diameter of cell/total number of cells: 6.7 ± 0.9%
[2]; Table 3 Run No. 6, 1 mM, control 4.4 ± 0.9
  Cells having neurites with a length at least twice the long diameter of cell/total number of cells: 6.7 ± 1.0%

## Cc1cc2c(C)nc(N3CCNCC3)nc2o1.Cl [Compound 906, 4,6-Dimethyl-2-piperazinofuro[2,3-d]pyrimidine hydrochloride]
[2]; [5]
  Cells having neurites with a length at least twice the long diameter of cell/total number of cells: 7.4 ± 1.0%
[2]; Table 3 Run No. 6, 0.3 mM, control 4.4 ± 0.9
  Cells having neurites with a length at least twice the long diameter of cell/total number of cells: 7.0 ± 0.6%

## CN1CCc2cnc(N3CCNCC3)nc21 [Compound 914, 5,6-Dihydro-7-methyl-2-piperazino(7H)pyrrolo[2,3-d]pyrimidine naphthalene-2-sulfonate]
[2]; [4]
  Cells having neurites with a length at least twice the long diameter of cell/total number of cells: 4.9 ± 0.9%
[2]; Table 3 Run No. 10, 0.3 mM, control 1.7 ± 0.7
  Cells having neurites with a length at least twice the long diameter of cell/total number of cells: 4.6 ± 0.8%

## CC1Cc2nc(N3CCNCC3)ncc2C(=O)O1.Cl (centres unmarked) [Compound 918, 7,8-Dihydro-7-methyl-5-oxo-2-piperazino(5H)pyrano[4,3-d]pyrimidine hydrochloride]
[2]; Table 3 Run No. 4, 0.1 mM, control 3.1 ± 0.2
  Cells having neurites with a length at least twice the long diameter of cell/total number of cells: 7.4 ± 2.5%
[2]; Table 3 Run No. 4, 1 mM, control 3.1 ± 0.2
  Cells having neurites with a length at least twice the long diameter of cell/total number of cells: 12.5 ± 0.9%

## COc1cc2cnc(N3CCNCC3)nc2cc1OC [Compound 940]
[1]; Table 1 Run No. 1, 10 μg/ml, control 2.09 ± 0.61
  Number of neurites/cell (mean ± S.D.): 2.12 ± 0.60 neurites/cell
[1]; Table 1 Run No. 1, 10 μg/ml, control 14.34 ± 0.72
  Number of cells (mean ± S.E.): 21.55 ± 2.36 × 10^4 /dish
[1]; Table 1 Run No. 1, 10 μg/ml, control 70.10 ± 43.03
  Length of neurites (mean ± S.D.): 77.92 ± 49.91 μm/cell
[2]; [6]
  Cells having neurites with a length at least twice the long diameter of cell/total number of cells: 11.5 ± 0.2%
[2]; [7]
  Cells having neurites with a length at least twice the long diameter of cell/total number of cells: 17.0 ± 1.2%
